Consider 14 compounds from patent US8664237B2 (The Johns Hopkins University, priority 2008, dated 2014).

Experiment [1] relates to IB3-1 cells. The experiment can be described thus: Fura-2 microscope calcium measurement in IB3-1 cells. The settings on record: for effect of preincubation on the spiperone-induced Ca2+ increase: inhibitor given before spiperone; for spiperone Ca2+ response after prior addition of the analog: analog added prior to spiperone; for increase of intracellular Ca2+ / Ca2+ release: spiperone analogs, solution not stated. Type of experiment: cell-based, human. The source says: . A microscope-based fluorescence Ca^2+ measurement system was utilized in this study. First IB3-1 cells grown on a coverglass were bathed in the ECaT Ringer's which was used for the screen. […] In order to ascertain the origin of this sustained increase the experiment was repeated except with Ca^2+-free ECaT Ringer's solution, (See FIG. 8).
Using normal Ringers, a study was undertaken to determine whether the source of the increase in cytoplasmic Ca^2+ was indeed the endoplasmic reticulum (ER). As part of the normal Ca^2+ transit system across the ER, the Ca^2+-ATPase pumps Ca^2+ from the cytosol to the ER uphill against the concentration gradient. Other channels continue to cycle Ca^2+ from ER back to cytosol. Thapsigargin blocks the Ca^2+-ATPase, inhibiting the uphill uptake. […]
Phospholipase C (PLC) is an intracellular enzyme that participates in calcium signaling pathways. […]. There are two major molecules that activate PLC pathways to release Ca^2+ from the ER. One is the G-protein coupled receptors. The second is the protein tyrosine kinase […]. […]. […] (FIG. 12G is the summary data of genistein treatment.) Lavendustin A is another protein tyrosine kinase inhibitor. […].
(§1) Cells were seeded on the collagen-coated cover glass for 48 h. Cell Ca^2+ was measured with a dual excitation wavelength microscope system. Fura-2 fluorescence was excited at 340 nm and 380 nm with xenon light. Fluorescence was measured at 510 nm emission wavelength. Data was processed and analyzed using IPLab 4.0 software. Fluorescence data of each experiment were normalized to the individual basal fluorescence value ΔF/F0=(F−F0)/F0 to bring all the response curves to the same pretreatment starting point.

The test system of experiment [2] is Calu-3 cells. In words: Short-circuit current measurement (Cl- secretion), Calu-3 monolayers. Type of experiment: cell-based, human. The settings on record: for effect of channel blocker on spiperone-induced sustained Cl- release / effect of channel blocker on spiperone-induced transient Cl-: amiloride present; for Cl- current (short circuit current): normal Ringer's, Na+ absorption blocked with amiloride. The procedure:
(§2) An experiment was carried out to establish that the spiperone-induced increase of Ca^2+ would produce an increase in Cl^− transport relevant to CF, and that it would do so in CF relevant epithelial cells. Calu-3 and CFBE41o-cell monolayers were cultured on permeable filter support and “short circuit current” measurements were performed to evaluate the current produced by Cl^− in these cells.
(§3) Na^+ is a positively charged ion and its absorption would interfere with the short circuit measurement for Cl^− secretion. Therefore, in normal Ringer's solution, Na^+ absorption across the cell membrane was blocked with amiloride. Cell monolayers were then exposed to the two relevant compounds: niflumic acid (NFA), which is a non-selective CaCCs blocker or to CFTRinh-172, which is a specific CFTR blocker.
(§4) Calu-3 and CFBE41o-cells were cultured on Snapwell inserts until they formed a tight monolayer as monitored by measuring the transepithelial resistance. The bottom of the monolayer was taken out, mounted on the Ussing chamber and buffered by the testing solutions. The short-circuit current was measured by a VCC MC6 multichannel voltage/current clamp (Physiologic Instruments, San Diego, Calif.). Data were recorded and analyzed by Acquire and Analyze software.

The conditions of experiment [3]: 24 weeks of treatment, phase III trial, inhaled; cited from earlier work.
For experiment [4], the system named is CFBE41o- cells. The experiment can be described thus: Short-circuit current measurement (Cl- secretion), CFBE41o- monolayers. Type of experiment: cell-based, human. The settings on record: for Cl- secretion (short circuit current): normal Ringer's, amiloride. The procedure: as §2, §3, §4
Experiment [5] concerns IB3-1 cells. In words: Compound screening for calcium enhancers (Fura-2 fluorescence plate reader).
From the text: Thus for the ECaT Ringers, we eliminated Na^+ from the solution and replaced it completely by N-methyl-D-glucamine (NMDG) to maintain the solution osmolality to favor Ca^2+ for entry through the P2X receptor. We were searching for compounds that activate the P2X receptor channel or other Ca^2+ entry channels, as well as compounds that bind to membrane or cellular proteins which are involved in intracellular Ca^2+ regulation.
Compounds were selected as potential hits if their change of fluorescence ratio fell within 3 SD of those obtained for zinc (ratio), and larger than that recorded for DMSO (ratio) +3SD. The average Z factor of all 25 plates is 0.6 for the 15 min detection. Hits were solely based on the change in the fluorescence ratio. Any compound that was highly auto-fluorescent was not considered further.
We further evaluated 37 hits manually using the Fluorescence Plate Reader system. […] Following this initial vetting process, the half-maximal effective concentration (EC50) was determined of each of the remaining 19 molecules. […] Compound Library: Library MSSP (Microsource Discovery Inc) was our source for compounds for the primary screening. The compounds were known bioactive compounds and natural products and their derivatives. The library contained 2,000 compounds on twenty-five 96-well plates, with 80 compounds tested per plate. In the master plates, each compound was suspended in DMSO at a concentration of 10 mM. A set of 96-well plates of the library in a concentration of 2 mM in DMSO was made prior to the screening.
Screening Procedure: The screening was performed by the Johns Hopkins University High Throughput Biology Center Chemcore. […] The fluorescence ratio was measured in ECaT Ringer's solution by a Tecan Safire Fluorescence Plate Reader. […] The fluorescence ratio was measured again immediately after adding the compounds. The final fluorescence detection was done 15 min after the second detection in order to find compounds which stimulate the sustained Ca^2+ increase.
The subject of the next experiment is 5-HT receptor. The settings on record: canine tracheal epithelia, another study; cited from earlier work.
The target of another experiment is 5-HT2 receptor (Homo sapiens, UniProt P28223). The settings on record: antagonists; cited from earlier work.
Sequence of 5-HT2 receptor (P28223 whole entry): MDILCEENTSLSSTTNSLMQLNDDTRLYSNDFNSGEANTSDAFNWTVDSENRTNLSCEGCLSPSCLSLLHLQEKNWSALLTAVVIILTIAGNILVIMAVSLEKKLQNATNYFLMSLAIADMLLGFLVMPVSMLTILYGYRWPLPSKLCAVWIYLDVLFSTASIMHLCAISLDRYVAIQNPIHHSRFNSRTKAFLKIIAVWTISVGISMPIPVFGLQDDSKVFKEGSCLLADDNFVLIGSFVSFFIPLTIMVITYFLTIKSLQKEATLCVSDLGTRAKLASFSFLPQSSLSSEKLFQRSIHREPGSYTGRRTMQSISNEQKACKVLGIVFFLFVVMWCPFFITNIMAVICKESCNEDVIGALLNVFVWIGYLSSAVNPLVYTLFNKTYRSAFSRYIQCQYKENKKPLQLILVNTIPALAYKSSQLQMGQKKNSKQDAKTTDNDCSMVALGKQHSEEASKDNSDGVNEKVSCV
The target in the next experiment is dopamine D2 receptor (Homo sapiens, UniProt P14416). The note with it: cited from earlier work.
Sequence of dopamine D2 receptor (P14416 whole entry, species assumed): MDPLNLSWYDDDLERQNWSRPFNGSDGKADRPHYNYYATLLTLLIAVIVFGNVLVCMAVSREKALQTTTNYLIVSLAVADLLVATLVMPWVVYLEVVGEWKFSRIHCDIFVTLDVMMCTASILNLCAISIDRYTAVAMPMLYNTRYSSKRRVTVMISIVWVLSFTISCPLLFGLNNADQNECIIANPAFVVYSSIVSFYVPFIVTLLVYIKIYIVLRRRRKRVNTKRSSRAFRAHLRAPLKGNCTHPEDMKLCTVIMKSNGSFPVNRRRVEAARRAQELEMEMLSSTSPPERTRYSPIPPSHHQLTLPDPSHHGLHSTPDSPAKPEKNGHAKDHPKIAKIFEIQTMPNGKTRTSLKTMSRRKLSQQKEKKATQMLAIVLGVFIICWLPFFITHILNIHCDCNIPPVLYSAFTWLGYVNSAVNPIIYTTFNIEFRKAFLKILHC
The test system of experiment [6] is Calu-3 cells. The experiment can be described thus: Fura-2 microscope calcium measurement in Calu-3 cells. Format: cell-based, human. The settings on record: Calu-3 non-CF; Ca2+-free Ringers. The procedure: as §1
The subject of a further experiment is NHBE. The experiment can be described thus: Fura-2 microscope calcium measurement in NHBE primary cells. The settings on record: NHBE primary culture; Ca2+-free Ringers. Type of experiment: cell-based, human. As for the experimental part:
as §1

The subject of experiment [7] is CFBE41o- cells. The experiment can be described thus: Fura-2 microscope calcium measurement in CFBE41o- cells. Type of experiment: cell-based, human. The note with it: CFBE41o- CF; Ca2+-free Ringers. As for the experimental part:
as §1

Experiment [8] deals with nasal epithelia of wild-type (C57B1/6) mice. The experiment can be described thus: Mouse nasal potential difference, wild-type C57B1/6 mice. The settings on record: after elimination of mucosal Cl-.
From the text: Animals: The studies conducted were approved by the Johns Hopkins University Animal Care and Use Committee. […] Nasal Potential Difference (NPD): All mice were anesthetized with an IP injection of a ketamine and xylazine mixture (100 mcg/10 mcg per gram of body weight). […] Briefly, a high impedance voltmeter (World Precision Instruments, Sarasota, Fla.) was connected by silver-chloride pellet electrodes to an exploring nasal bridge and a reference subcutaneous bridge. The nasal bridge, a single polyethylene tube (PE10, 0.28 mm ID, Clay-Adams, B D, Sparks, Md.) was pulled to one-half its original diameter and cut at a 45 degree angle. The tubing was marked and inserted 5 mm from the tip of the nare. A paper tape flag indicated position and orientation of the tip. The subcutaneous bridge was a 25 GA Butterfly® (Abbott, Chicago, Ill.) needle containing Ringer's solution inserted subcutaneously in the right abdominal wall. Each solution was warmed to 37° C. and perfused to the nare for at least 3 minutes at 5 micro liters per minute using a perfusion pump. Following the procedure, the oral cavity was gently suctioned of perfusate and the mice were recovered to their cages. Voltmeter data (mV) was recorded by a PowerLab A/D converter connected to a PC running Chart software at 20 samples per second (AD Instruments, Colorado Springs, Colo.). […]
For experiment [9], the system named is nasal epithelium of CFKO mice. In words: Mouse nasal potential difference, CF (double transgenic CFKO) mice.
From the text: In order to allow for later hyperpolarization from chloride secretion, their nasal epithelia were perfused with baseline Ringers with amiloride added to block the epithelial Na^+ channel. For the next perfusion, the Cl^− was removed by substituting Na^+ gluconate in the baseline Ringer's solution (FIG. 8), then removed Cl^− from the mucosa by perfusing the nare with that Ringer's.
Nasal Potential Difference (NPD): All mice were anesthetized with an IP injection of a ketamine and xylazine mixture (100 mcg/10 mcg per gram of body weight). […] Briefly, a high impedance voltmeter (World Precision Instruments, Sarasota, Fla.) was connected by silver-chloride pellet electrodes to an exploring nasal bridge and a reference subcutaneous bridge. The nasal bridge, a single polyethylene tube (PE10, 0.28 mm ID, Clay-Adams, B D, Sparks, Md.) was pulled to one-half its original diameter and cut at a 45 degree angle. The tubing was marked and inserted 5 mm from the tip of the nare. A paper tape flag indicated position and orientation of the tip. The subcutaneous bridge was a 25 GA Butterfly® (Abbott, Chicago, Ill.) needle containing Ringer's solution inserted subcutaneously in the right abdominal wall. Each solution was warmed to 37° C. and perfused to the nare for at least 3 minutes at 5 micro liters per minute using a perfusion pump. Following the procedure, the oral cavity was gently suctioned of perfusate and the mice were recovered to their cages. Voltmeter data (mV) was recorded by a PowerLab A/D converter connected to a PC running Chart software at 20 samples per second (AD Instruments, Colorado Springs, Colo.). A minimum of 400 data points (˜20 seconds) were used to calculate the mean voltage values.

For `NCCOB(c1ccccc1)c1ccccc1` [2APB], in the experiment on IB3-1 cells [1] (100 μM, 30 minutes incubation, data not shown), the “effect on the spiperone induced Ca2+ release from ER” value is “totally blocked”.
`O=C(O)c1ccc(/C=C2\SC(=S)N(c3cccc(C(F)(F)F)c3)C2=O)cc1` [CFTRinh-172]: in the experiment with Calu-3 cells [2], the “effect of channel blocker on spiperone-induced sustained Cl- release” value is recorded as “totally blocked” and the “effect of channel blocker on spiperone-induced transient Cl-” value was “reduced”.
Consider `Nc1ccn([C@H]2C[C@H](O)[C@@H](COP(=O)(O)OP(=O)(O)OP(=O)(O)OP(=O)(O)OC[C@H]3O[C@@H](n4ccc(=O)[nH]c4=O)[C@H](O)[C@@H]3O)O2)c(=O)n1` [Denufosol, denufosol], for which, in experiment [3], the “improvement in lung function” value is 2.5%.
For the compound `O=C(O)c1cccnc1Nc1cccc(C(F)(F)F)c1` [NFA, niflumic acid], in the experiment with Calu-3 cells [2], the “effect of channel blocker on spiperone-induced sustained Cl- release” value is reported as “totally blocked” and the “effect of channel blocker on spiperone-induced transient Cl-” value is reported as “reduced”. Besides, the “effect of CaCC blocker on spiperone's effect on Cl- secretion” value in the experiment with CFBE41o- cells [4] is “reduced significantly”.
In the case of `Cc1ccc(C(=O)Nc2ccc(S(=O)(=O)O)c3cc(S(=O)(=O)O)cc(S(=O)(=O)O)c23)cc1NC(=O)c1cccc(NC(=O)Nc2cccc(C(=O)Nc3cc(C(=O)Nc4ccc(S(=O)(=O)O)c5cc(S(=O)(=O)O)cc(S(=O)(=O)O)c45)ccc3C)c2)c1` [Suramin, suramin], the “effect of preincubation on the spiperone-induced Ca2+ increase” value in the experiment on IB3-1 cells [1] is on record as “did not reduce”.
For the compound `COc1ccc2c(c1)CC[C@@H]1[C@@H]2CC[C@]2(C)[C@@H](NCCCCCCN3C(=O)C=CC3=O)CC[C@@H]12` [U73122], the “effect of preincubation on the spiperone-induced Ca2+ increase” value in the experiment with IB3-1 cells [1] is “diminished”.
Still for that read-out and setting: under `COc1ccc2c(c1)CC[C@@H]1[C@@H]2CC[C@]2(C)C(NCCCCCCN3C(=O)CCC3=O)CC[C@@H]12` (stereo partly shown) [U73433] stands “did not”.
Regarding `[Zn]` [Zinc, zinc], the “increase in cytoplasmic Ca2+ (change in fluorescence ratio)” value with IB3-1 cells [5] (ECaT Ringer's, plate reader) is “long lasting increase in cytoplasmic Ca^2+”.
Consider `O=c1c(-c2ccc(O)cc2)coc2cc(O)cc(O)c12` [genistein], for which the “effect of preincubation on the spiperone-induced Ca2+ increase” value with IB3-1 cells [1] is “partially blocked”.
As for `O=C(CCCN1CCC(O)(c2ccc(Cl)cc2)CC1)c1ccc(F)cc1` [haloperidol], the “effect on spiperone-stimulated transepithelial Cl- currents” value in the experiment with Calu-3 cells [2] (analog given before spiperone) was “did not prevent spiperone from stimulating transepithelial Cl^− currents”. Further, the “Cl- current (short circuit current)” value in the experiment on Calu-3 cells [2] is “did not stimulate the Cl^− current”. Moreover, the “spiperone Ca2+ response after prior addition of the analog” value in the experiment with IB3-1 cells [1] (Ca2+-free normal Ringer's) is recorded as “spiperone was still able to stimulate a transient increase in Ca^2+”. Further, in the experiment on IB3-1 cells [1], the “increase of intracellular Ca2+ / Ca2+ release” value is “did not release Ca^2+”.
As for `O=C(c1ccc(F)cc1)C1CCN(CCn2c(=O)[nH]c3ccccc3c2=O)CC1` [ketanserin], the “effect on 5-HT effects (inhibited Na+ absorption, stimulated Cl- secretion)” value in the experiment with 5-HT receptor was “blocked those effects”. Further, the “affinity for the 5-HT2 receptor” value on 5-HT2 receptor is on record as “high affinity”. In addition, the “spiperone Ca2+ response after prior addition of the analog” value in the experiment on IB3-1 cells [1] (Ca2+-free normal Ringer's) was “spiperone was still able to stimulate a transient increase in Ca^2+”. In addition, the “increase of intracellular Ca2+ / Ca2+ release” value with IB3-1 cells [1] is “did not increase intracellular Ca^2+”. Moreover, at dopamine D2 receptor, the “antagonism of the dopamine receptor” value was “very weakly antagonistic”.
Turning to `O=C(O)c1cc(N(Cc2ccccc2O)Cc2cc(O)ccc2O)ccc1O` [lavendustin A], the “effect on the increase in Ca2+ induced by spiperone” value with IB3-1 cells [1] (10 μM, data not shown) was “significantly diminished”.
Take `O=C(CCCN1CCC2(CC1)C(=O)NCN2c1ccccc1)c1ccc(F)cc1` [spiperone]: in the experiment on IB3-1 cells [5] (higher concentrations, inhibition), the “spiperone concentrations at which the Ca2+ stimulation is reduced” value is > 50 µM. Also, the “spiperone concentrations that stimulate cytoplasmic Ca2+” value with IB3-1 cells [5] (lower concentrations, activation) is “less than 50 μM”. For the same compound, the Cl- secretion result with Calu-3 cells [2] (20 μM, monolayers) is “stimulated Cl^− secretion”; with CFBE41o- cells [4] (20 μM, monolayers), “stimulated Cl^− secretion”. Besides, the “amount of spiperone required to induce Cl- secretion” value in the experiment with Calu-3 cells [2] ("our study", airway epithelial cells) is “at least 1 μmol”. In addition, the “Cl- current (short circuit current)” value with Calu-3 cells [2] is “a transient and then a sustained Cl^− current”. For the same compound, the “change in Ca2+” value with Calu-3 cells [6], with NHBE and in the experiment on CFBE41o- cells [7] was “transient increase in Ca^2+” each time. Moreover, in the experiment with CFBE41o- cells [4], the “Cl- secretion (short circuit current)” value is given as “only a transient Cl^− secretion”. The “Cl- transit on spiperone applied after thapsigargin” value in the experiment with CFBE41o- cells [4] (subsequent to thapsigargin) is “failed to stimulate any additional Cl^− transit”. Also, at 5-HT2 receptor, the “affinity for the 5-HT2 receptor” value is listed as “high affinity”. Further, the “change in cytoplasmic Ca2+” value was “only a transient increase in cytoplasmic Ca^2+” in the experiment with IB3-1 cells [1] (Ca2+-free ECaT Ringer's), “only a transient increase in Ca^2+” in the experiment with IB3-1 cells [1] (Ca2+-free normal Ringer's), “sustained increase in Ca^2+” with IB3-1 cells [1] (ECaT Ringer's) and “only a transient increase in Ca^2+” in the experiment on IB3-1 cells [1] (normal Ringer's). Further, the “cytosolic Ca2+ response to thapsigargin after spiperone” value in the experiment with IB3-1 cells [1] (cells treated with spiperone before thapsigargin, normal Ringers) is recorded as “no increase in cytosolic Ca^2+”. Further, at dopamine D2 receptor (antagonists), the “affinity for the dopamine D2 receptor” value is recorded as “high affinity”. Also, the “nasal potential difference / Cl- conductance” value in experiment [8] is recorded as “did not induce any further hyperpolarization”; in experiment [9] (1 μM in Zero Cl- baseline Ringer's, after amiloride, nasal perfusion), “hyperpolarized the mouse nasal potential significantly”; in experiment [9] (subsequent increase to 20 μM), “did not boost Cl^− conductance”. Also, the nasal potential difference entry in experiment [9] (1 μM, after 19 min of sustained perfusion) is recorded as “remained significantly hyperpolarized”.
Consider `C/C=C(/C)C(=O)O[C@H]1C(C)=C2[C@H]([C@@H]1OC(=O)CCCCCCC)[C@@](C)(OC(C)=O)C[C@H](OC(=O)CCC)[C@@]1(O)[C@H]2OC(=O)[C@@]1(C)O` [thapsigargin], for which the “Cl- secretion (short circuit current)” value with CFBE41o- cells [4] is “transient increase in Cl^− secretion”. The “change in cytoplasmic Ca2+” value in the experiment with IB3-1 cells [1] (normal Ringer's) was “net increase in Ca^2+ in the cytosol”.
